Measured values from article PMC3073382 (Journal of medicinal chemistry, 2010).

Biological target: PKA (catalytic subunit) (Bos taurus, UniProt P00517)
Experiment: biochemical

## O=C(N[C@@H]1CNCCC[C@H]1OC(=O)c1cc(O)c(C(=O)c2c(O)cccc2C(=O)O)c(O)c1)c1ccc(O)cc1 [balanol]
  IC50: 110 nM
